The results in this text go back to US9758505B2, “3-(indol-3-yl)-pyridine derivatives, pharmaceutical compositions and methods for use” (ITEOS THERAPEUTICS, priority 2014, dated 2017).

In experiment [1] the target is T1, human TDO2 (Homo sapiens (Human), UniProt P48775). Nature of the experiment: Assay for TDO2 enzymatic activity determination. The format is biochemical. Particulars: human recombinant TDO2, L-Trp 1 mM, kynurenine absorbance at 480 nm. The procedure:
The compounds of formula I inhibit the enzymatic activity of human TDO2.
To measure the TDO2 activity, the procedure described in Dolusic et al. J. Med. Chem.; 2011, 54, […] was adapted: the reaction mixture contained (final concentrations) potassium phosphate buffer (50 mM, pH 7.5), ascorbic acid (0.25 M), methylene blue (0.125 μM), catalase (40 units/mL, from bovine liver, Sigma), and human recombinant TDO2 enzyme (prepared as described in Dolusic et al. J. Med. Chem.; 2011, 54, 5320-5334; 0.9 μg) without or with the compounds of the present invention at the indicated concentrations (total volume 112.5 μL). The reaction was initiated by the addition of 37.5 μL of L-Trp (final concentration 1 mM) at room temperature. The reaction was conducted at room temperature during one hour and stopped by the addition of 30 μL of 30% (w/v) trichloroacetic acid.
To convert N-formylkynurenine into kynurenine, the reaction mixture was incubated at 65° C. for 30 min. Then 150 μL of the reaction mixture was mixed with 120 μL of 2.5% (w/v) 4-(dimethylamino)-benzaldehyde in acetic acid and incubated for 5 min at room temperature. Kynurenine concentrations were determined by measuring the absorbance at 480 nm. A standard curve was made with pure kynurenine. The TDO activity was measured as described above using ten serial concentrations of the compounds of the present invention. Data were fitted using the Prism™ software (GraphPad Software, Inc.) using standard software configurations.

In experiment [2] the target is T1, human TDO2. As to the kind of experiment: Cellular assay for TDO2 activity, hTDO2-overexpressing P815 cells. The format is cell-based. To be noted: murine mastocytoma P815 cells overexpressing hTDO2, overnight incubation, kynurenine in supernatant. The procedure: The compounds of Formula I inhibit the activity of human TDO2 in cells.
The assay (adapted from Pilotte L et al., Proc Natl Acad Sci USA, 2012, 109(7), 2497-502) was performed in 96-well flat bottom plates seeded with murine mastocytoma P815 cells overexpressing hTDO2 (prepared as described in Pilotte et al., PNAS, 2012, 109(7), 2497-2502), at a concentration of 5×10^4 cells/well in a final volume of 200 μL. To determine TDO or IDO activity, the cells were incubated overnight at 37° C. at 5% CO2 in IMDM (Invitrogen) supplemented with 2% FBS and 2% penicillin/streptomycin in the presence of the compounds of the present invention, at different concentrations. The cells may be obtained from the American Type Cuylture Collecion [ATCC® TIB-64™ or commercially, e.g., from Sigma-Aldrich or Life Technologies.]
The plates were then centrifuged 5 min at 1000 rpm, and 100 μL of the supernatant were collected in a conical plate, 30 uL of TCA 30% were added and a further centrifugated at 3000×g for 10 minutes. 100 μL of the supernatant were collected in a flat bottomed plate and 100 μL of 2% (w/v) 4-(dimethylamino)-benzaldehyde in acetic acid and incubated for 5 min at room temperature. Kynurenine concentrations were determined by measuring the absorbance at 480 nm. A standard curve was made with pure kynurenine. The TDO activity was measured as described above using ten serial concentrations of the compounds of the present invention. Data were fitted using the Prism™ software (GraphPad Software, Inc.) using standard software configurations.

The target in experiment [3] is T1, human TDO2. As to the kind of experiment: Cellular assay for TDO2 activity, A172 cells naturally expressing hTDO2. The format is cell-based. To be noted: human glioblastoma A172 cells, overnight incubation, kynurenine in supernatant.
The target in another experiment is TDO2 (Mus musculus (Mouse), UniProt P48776). Nature of the experiment: Pharmacodynamic assay for TDO2 in vivo activity: increase of blood tryptophan levels in mice. Particulars: female BALB/c mice, 2 h. The text has this:
The compounds of the present invention increase the amount of Tryptophan in mouse blood.

As usually defined, the IC50 is the concentration needed to halve the response being measured.

Sequence of TDO2 (P48776 whole entry): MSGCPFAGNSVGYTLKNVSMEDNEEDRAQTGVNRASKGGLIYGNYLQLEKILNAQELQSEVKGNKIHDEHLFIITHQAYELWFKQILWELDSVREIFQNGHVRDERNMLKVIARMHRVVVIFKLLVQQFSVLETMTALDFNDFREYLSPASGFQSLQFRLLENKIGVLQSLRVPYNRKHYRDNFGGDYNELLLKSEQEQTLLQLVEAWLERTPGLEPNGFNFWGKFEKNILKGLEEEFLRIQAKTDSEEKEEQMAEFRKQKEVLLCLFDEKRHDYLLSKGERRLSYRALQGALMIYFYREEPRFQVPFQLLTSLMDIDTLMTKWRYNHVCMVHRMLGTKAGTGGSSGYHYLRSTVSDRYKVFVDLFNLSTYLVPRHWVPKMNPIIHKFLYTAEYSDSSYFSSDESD
T1 sequence (P48775 whole entry): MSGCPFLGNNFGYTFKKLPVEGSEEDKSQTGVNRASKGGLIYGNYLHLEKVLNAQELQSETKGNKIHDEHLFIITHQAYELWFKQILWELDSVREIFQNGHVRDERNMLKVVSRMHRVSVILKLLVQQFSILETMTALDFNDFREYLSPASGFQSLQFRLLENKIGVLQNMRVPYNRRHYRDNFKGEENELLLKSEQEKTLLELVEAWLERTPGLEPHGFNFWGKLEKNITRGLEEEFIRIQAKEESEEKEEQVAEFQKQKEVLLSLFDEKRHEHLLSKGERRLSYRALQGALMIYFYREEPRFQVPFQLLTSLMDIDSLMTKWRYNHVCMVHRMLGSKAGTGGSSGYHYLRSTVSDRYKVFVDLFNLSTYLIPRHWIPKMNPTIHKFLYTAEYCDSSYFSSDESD

Take `NCC(=O)NC1CCN(c2ccc(-c3c[nH]c4cc(F)ccc34)cn2)CC1` [Example 13, 2-amino-N-(1-(5-(6-fluoro-1H-indol-3-yl)pyridin-2-yl)piperidin-4-yl)acetamide]: the IC50 on human TDO2 [1] was found to be 1700 nM; on human TDO2 [2] it was 550 nM.

For the compound `CS(=O)(=O)NC1CCN(c2ccc(-c3c[nH]c4cc(F)ccc34)cn2)CC1` [Example 14, N-(1-(5-(6-fluoro-1H-indol-3-yl)pyridin-2-yl)piperidin-4-yl)methanesulfonamide], the IC50 against human TDO2 [3] was determined as 1800 nM; on human TDO2 [1], 970 nM; against human TDO2 [2], 610 nM. In addition, the “Tryptophan concentration in plasma (average ± standard error of the mean)” value at TDO2 (30 mg/kg oral gavage) amounted to 27976 ± 1196; on TDO2 (60 mg/kg oral gavage), 33862 ± 1529; on TDO2 (100 mg/kg oral gavage), 35716 ± 1663. Besides, the figures for the “increase of circulating Tryptophan compared to vehicle-treated controls” value at TDO2 (30 mg/kg oral gavage), on TDO2 (60 mg/kg oral gavage) and at TDO2 (100 mg/kg oral gavage) were 33%, 61% and 70%, respectively.

On to `Nc1ccc(-c2c[nH]c3cc(F)ccc23)cn1` [Example 15, 5-(6-fluoro-1H-indol-3-yl)pyridin-2-amine], for which the IC50 was 1100 nM on human TDO2 [1] and 130 nM against human TDO2 [2].

As for `Fc1ccc2c(-c3ccc(NC4CCNCC4)nc3)c[nH]c2c1` [Example 17, 5-(6-fluoro-1H-indol-3-yl)-N-(piperidin-4-yl)pyridin-2-amine], the half-maximal inhibitory concentration (IC50) at human TDO2 [1] was determined as 870 nM; against human TDO2 [2] it was 1300 nM.

Consider `CS(=O)(=O)NCCCNc1ccc(-c2c[nH]c3cc(F)ccc23)cn1` [Example 21, N-(3-(5-(6-fluoro-1H-indol-3-yl)pyridin-2-ylamino)propyl)methanesulfonamide], for which the IC50 was determined as 620 nM on human TDO2 [1] and 350 nM at human TDO2 [2].

For `CS(=O)(=O)CCCNc1ccc(-c2c[nH]c3cc(F)ccc23)cn1` [Example 22, 5-(6-fluoro-1H-indol-3-yl)-N-(3-(methylsulfonyl)propyl)pyridin-2-amine], the values for the IC50 on human TDO2 [1] and against human TDO2 [2] were 1200 nM and 400 nM, respectively.

In the case of `CN(C)CCNc1ccc(-c2c[nH]c3cc(F)ccc23)cn1` [Example 25, N^1-(5-(6-fluoro-1H-indol-3-yl)pyridin-2-yl)-N^2,N^2-dimethylethane-1,2-diamine], the IC50 came out at 540 nM on human TDO2 [1] and 140 nM against human TDO2 [2].

For the compound `OCCNc1ccc(-c2c[nH]c3cc(F)ccc23)cn1` [Example 27, 2-(5-(6-fluoro-1H-indol-3-yl)pyridin-2-ylamino)ethanol], the IC50 at human TDO2 [1] is 490 nM; at human TDO2 [2], 190 nM.

Turning to `CS(=O)(=O)CCNc1ccc(-c2c[nH]c3cc(F)ccc23)cn1` [Example 28, 5-(6-fluoro-1H-indol-3-yl)-N-(2-(methylsulfonyl)ethyl)pyridin-2-amine], the IC50 was 1500 nM on human TDO2 [1] and 1000 nM on human TDO2 [2].

As for `O=C(O)CNc1ccc(-c2c[nH]c3cc(F)ccc23)cn1` [Example 30, 2-(5-(6-fluoro-1H-indol-3-yl)pyridin-2-ylamino)acetic acid], the IC50 on human TDO2 [1] turned out to be 1600 nM; at human TDO2 [2], 1500 nM.

`NC(=O)CNc1ccc(-c2c[nH]c3cc(F)ccc23)cn1` [Example 31, 2-(5-(6-fluoro-1H-indol-3-yl)pyridin-2-ylamino)acetamide]: the figures for the IC50 at human TDO2 [1] and at human TDO2 [2] were 790 nM and 120 nM, respectively.

`CNc1ccc(-c2c[nH]c3cc(F)ccc23)cn1` [Example 34, 5-(6-fluoro-1H-indol-3-yl)-N-methylpyridin-2-amine]: the IC50 came to 1600 nM against human TDO2 [3], 290 nM at human TDO2 [1] and 240 nM at human TDO2 [2].

As to `CC(=O)Nc1ccc(-c2c[nH]c3cc(F)ccc23)cn1` [Example 40, N-(5-(6-fluoro-1H-indol-3-yl)pyridin-2-yl)acetamide], the IC50 is 130 nM at human TDO2 [3], 1000 nM at human TDO2 [1] and 150 nM against human TDO2 [2].

Regarding `Fc1ccc2c(-c3cccnc3)c[nH]c2c1` [Example 44, 6-fluoro-3-(pyridin-3-yl)-1H-indole], the IC50 came to 600 nM against human TDO2 [3], 850 nM at human TDO2 [1] and 68 nM against human TDO2 [2].

`Cc1ncccc1-c1c[nH]c2cc(F)ccc12` [Example 45, 6-fluoro-3-(2-methylpyridin-3-yl)-1H-indole]: the IC50 worked out at 860 nM on human TDO2 [1] and 220 nM on human TDO2 [2].

With `Cc1ccncc1-c1c[nH]c2cc(F)ccc12` [Example 46, 6-fluoro-3-(4-methylpyridin-3-yl)-1H-indole], the IC50 at human TDO2 [1] turned out to be 13000 nM; on human TDO2 [2], 670 nM.

On to `Fc1cc2[nH]cc(-c3cccnc3)c2cc1F` [Example 47, 5,6-difluoro-3-(pyridin-3-yl)-1H-indole], for which the IC50 on human TDO2 [1] is 2800 nM; against human TDO2 [2], 240 nM.

On to `Cc1cncc(-c2c[nH]c3cc(F)ccc23)c1` [Example 48, 6-fluoro-3-(5-methylpyridin-3-yl)-1H-indole], for which the IC50 stood at 4500 nM at human TDO2 [1] and 620 nM on human TDO2 [2].
